From patent US20230404989A1, “GRK2 INHIBITION BY PAROXETINE AMELIORATES OSTEOARTHRITIS” (THE PENN STATE RESEARCH FOUNDATION, priority 2020, published 2023)

How the values were obtained:
DMM mice [1] = assay: Anterior femoral synovial membrane thickness in DMM mice; type: in vivo, mouse; conditions: daily ip week 8 to 12, versus vehicle
Experimental: Drug treatment studies: In twelve-week old male wild type C57BL/6 mice that received DMM surgeries, vehicle (PBS), paroxetine (5 mg/kg/day), fluoxetine (5 mg/kg/day), gallein (10 mg/kg/day) or indomethacin (2.5 mg/kg/day) were administered daily by ip injection. Drug treatment was initiated 8 weeks following DMM to determine the role of GRK2 signaling in the progression of OA. Using Safranin-O/Fast Green-stained sections, the OsteoMetrics system was used to quantify the above parameters on three sections from representative levels (50 μm apart) of the medial compartment of the joint for each sample. Live images of the center of the knee joint were collected through an Olympus microscope (10× objective) outfitted with a camera, a stylus was used to trace the regions of interest (ROIs). A blinded observer quantified uncalcified articular cartilage area, total chondrocyte number and matrix-producing chondrocyte number using the built-in area calculation algorithms and quantification functions of the OsteoMeasure® system. […] The calcified cartilage was determined with a line drawn along the tide mark, which is the naturally occurring line separating the calcified and uncalcified regions of the articular cartilage. A second line was drawn at the chondro-osseous junction where the calcified cartilage meets the subchondral bone. The uncalcified cartilage area was determined by subtracting the calcified cartilage area from the total area of cartilage. Total chondrocyte number and matrix-producing chondrocyte number were counted within the uncalcified cartilage region using count functions within the histomorphometry system. Matrix-producing chondrocytes were counted based on the region of Safranin-O staining within the extracellular matrix surrounding the articular chondrocyte, indicating anabolic signaling to maintain matrix homeostasis. Similarly, the anterior femoral synovial thickness was measured using OsteoMeasure® software. Synovial membrane thickness extending from anterior horn of the medial meniscus to the femur was determined by drawing a line from the inner insertion point on the femur towards the attachment on the meniscus. A second line was drawn from the outer insertion of the femur towards the attachment to the meniscus. The synovial thickness was calculated by dividing total synovial area by synovial perimeter.

DMM mice [2] = assay: Micro-CT assessment of knee joint and subchondral bone in DMM mice; type: in vivo, mouse; conditions: daily ip week 8 to 12
Experimental: Drug treatment studies: In twelve-week old male wild type C57BL/6 mice that received DMM surgeries, vehicle (PBS), paroxetine (5 mg/kg/day), fluoxetine (5 mg/kg/day), gallein (10 mg/kg/day) or indomethacin (2.5 mg/kg/day) were administered daily by ip injection. Drug treatment was initiated 8 weeks following DMM to determine the role of GRK2 signaling in the progression of OA. Prior to histologic processing, harvested knee joints were evaluated via micro-CT using a Scanco vivaCT40 scanner with a 55 kVp source as we have previously described. Joints were scanned at a resolution of 10.5 μm. General 3-dimensional images were obtained with simple segmentation at a Scanco threshold of 260, which was determined on inspection of the first specimen. This translates to a linear attenuation coefficient of 2.080 cm-1. Knee analysis starts by locating the highest section of the tibial plateau and defining that as the center point. All bone is captured 100 slices in each direction from the center point. The patella and fibula, if present in that region, are excluded. The fabellae are considered part of the knee and are included. A threshold of 260 (2.080 cm′) is used to analyze bone volume and microarchitecture. Tibia subchondral analysis begins by starting at the knee and proceeding distally until the cortical shell is penetrated. All non-cortical bone is included, both solid and trabecular. Osteophytes were identified as protrusions and counted using cross-sectional images of the 3-dimensional stacks. Subchondral plate thickness was calculated by determining the number of cross-sections forming the subchondral plate and multiplying it by section thickness (C. Huesa, Annals of the rheumatic diseases, 75, 1989-1997 (2016)).

Compound	synovial membrane thickness (DMM mice [1])	higher osteophyte number (DMM mice [2])	higher subchondral bone mineral density (BMD) (DMM mice [2])	higher subchondral bone volume density (BV/TV) (DMM mice [2])	higher subchondral plate thickness (DMM mice [2])	higher subchondral trabecular thickness (Tb.Th) (DMM mice [2])	increased knee bone volume (BV) (DMM mice [2])	increased knee total volume (TV) (DMM mice [2])
O=C1OC2(c3ccccc31)c1ccc(O)c(O)c1Oc1c2ccc(O)c1O [gallein]	as effective as indomethacin	alleviated	alleviated	alleviated	alleviated	alleviated	ameliorated	ameliorated
Fc1ccc([C@@H]2CCNC[C@H]2COc2ccc3c(c2)OCO3)cc1 [paroxetine]	as effective as indomethacin	alleviated	alleviated	alleviated	alleviated	alleviated	ameliorated	ameliorated
